From patent US20190127366A1 (LifeSci Pharmaceuticals, Inc., priority 2015, published 2019)
Read-outs that look alike come from different tables or passages of the source.

Biological target: T1, human complement factor D (Homo sapiens, UniProt P00746)
T1 construct: purchased R&D Systems 1824-SE
Assay: In vitro enzyme inhibition (Z-Lys-SBzl/DTNB absorbance assay)
Type: biochemical
Procedure: The ability of the compounds disclosed herein to inhibit human complement factor D inhibitory activity was quantified according to the 12-step protocol provided below. • 1. Prepare assay buffer: 50 mM Tris/HCl, pH 7.5, 1 M NaCl. • 2. Dilute 10 mM Complement Factor D inhibitor Nafamostat Mesilate (Selleckchem, Catalog #S1386) solution from 10000 μM to 9.77 μM in 100% DMSO, 8 concentrations. Then dilute the serial concentrations of Nafamostat Mesilate 20-fold in assay buffer. • 3. Add 10 μl diluted Nafamostat Mesilate duplicated into each of the inhibitor control well of a 96-well plate (Corning, Catalog #3599). Final concentrations were 50 μM, 25 μM, 12.5 μM, 6.25 μM, 3.125 μM, 0.781 μM, 0.195 μM and 0.049 μM. 0.5% DMSO was in each well finally. • 4. Dilute 20 mM test compounds from 10000 μM to […] in 100% DMSO, 6-fold dilution, 8 concentrations. Then dilute the serial concentrations of test compounds 20-fold in assay buffer. • 5. Add 10 μl diluted test compounds duplicated into the 96-well plate. Final concentrations were 50 μM, 8.33 μM, 1.39 μM, 0.23 μM, 0.0386 μM, 0.0064 μM, 0.0011 μM and 0.0002 μM. 0.5% DMSO was in each well finally. • 6. Dilute 20 mM substrate Z-Lys-SBzl (Bachem, Cat #M-1300) to 200 μM in assay buffer with 200 μM DTNB(Sigma, Catalog #D8130). • 7. Dilute 738 ng/μL Complement Factor D (R&D Systems, Catalog #1824-SE) to 6.25 ng/μL in assay buffer. Add 40 μl diluted Complement Factor D in the 96-well plate. • 8. Positive control well contains Complement Factor D without test compound. Negative control well contains neither Complement Factor D nor test compound. Using assay buffer, bring the total volume of all controls to 50 μl. • 9. Pre-incubate the plate for 5 min at room temperature. • 10. Add 50 μl of diluted substrate/DTNB mixture into each well. Mix the reagents completely by shaking the plate gently for 30 sec. • 11. For kinetic reading: Immediately start measuring absorbance (A405 nm) continuously and record data every 30sec for 60 min. • 12. Data analysis • Inhibition activity of compound was evaluated by IC50. IC50 was calculated according the dose-response curve of compound fitted using GraphPadPrism with “log(inhibitor)-response (variable slope)” equation. • % inhibition was calculated by using following equation:
[formula] • Mean(NC): The average value of the negative control wells' A405 nm values. • Mean(PC): The average value of the positive control wells' A405 nm values.
The ability of the compounds in Table 2 to inhibit human complement factor D inhibitory activity was determined.

[1] = Complement Factor D (R&D Systems), substrate Z-Lys-SBzl, A405 nm, read-out: CFD IC50

T1 sequence (P00746 26-253): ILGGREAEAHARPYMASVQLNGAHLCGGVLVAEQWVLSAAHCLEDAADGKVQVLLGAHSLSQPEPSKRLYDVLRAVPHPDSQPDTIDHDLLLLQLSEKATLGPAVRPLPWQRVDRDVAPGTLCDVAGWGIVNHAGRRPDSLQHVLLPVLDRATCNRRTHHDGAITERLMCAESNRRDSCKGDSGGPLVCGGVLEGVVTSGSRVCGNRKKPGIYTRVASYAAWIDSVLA

Structure (SMILES) | IC50 [1] [nM] | IC50 [nM]
NC(=O)c1nn(CC(=O)N2[C@@H]3CC[C@@H](C3)[C@H]2C(=O)Nc2cccc(C3CC3)n2)c2cc(C3CC3)ccc12 [Example 5, 6-cyclopropyl-1-(2-((1R,3S,4S)-3-((6-cyclopropylpyridin-2-yl)carbamoyl)-2-azabicyclo[2.2.1]heptan-2-yl)-2-oxoethyl)-1H-indazole-3-carboxamide] | 1000 to 10000 | –
NC(=O)Cc1ccc2c(C(N)=O)nn(CC(=O)N3[C@@H]4CC[C@@H](C4)[C@H]3C(=O)NCc3cccc(Cl)c3F)c2c1 [Example 128, 6-(2-amino-2-oxoethyl)-1-(2-((1R,3S,4S)-3-((3-chloro-2-fluorobenzyl)carbamoyl)-2-azabicyclo[2.2.1]heptan-2-yl)-2-oxoethyl)-1H-indazole-3-carboxamide] | 1000 to 10000 | –
NC(=O)c1nn(CC(=O)N2[C@@H]3CC[C@@H](C3)[C@H]2C(=O)NC(CO)c2cccc(Cl)c2F)c2ccccc12 (stereo partly drawn) [Example 138, 1-(2-((1R,3S,4S)-3-((1-(3-chloro-2-fluorophenyl)-2-hydroxyethyl)carbamoyl)-2-azabicyclo[2.2.1]heptan-2-yl)-2-oxoethyl)-1H-indazole-3-carboxamide] | 1000 to 10000 | –
CC(=O)c1nn(CC(=O)N2[C@@H]3CC[C@@H](C3)[C@H]2C(=O)Nc2cccc(Cl)n2)c2ccc(C)cc12 [Example 83, (1R,3S,4S)-2-(2-(3-acetyl-5-methyl-1H-indazol-1-yl)acetyl)-N-(6-chloropyridin-2-yl)-2-azabicyclo[2.2.1]heptane-3-carboxamide] | 100 to 1000 | –
CC(=O)c1nn(CC(=O)N2[C@@H]3CC[C@@H](C3)[C@H]2C(=O)Nc2cccc(Cl)n2)c2ccc(C#N)cc12 [Example 92, (1R,3S,4S)-2-(2-(3-acetyl-5-cyano-1H-indazol-1-yl)acetyl)-N-(6-chloropyridin-2-yl)-2-azabicyclo[2.2.1]heptane-3-carboxamide] | 100 to 1000 | –
NC(=O)c1nn(CC(=O)N2[C@H](C(=O)Nc3cccc(Cl)n3)C[C@@H]3CCC[C@@H]32)c2cc(Cl)ccc12 [Example 182, 6-chloro-1-(2-((2S,3aS,6aS)-2-((6-chloropyridin-2-yl)carbamoyl)hexahydrocyclopenta[b]pyrrol-1(2H)-yl)-2-oxoethyl)-1H-indazole-3-carboxamide] | 100 to 1000 | –
COC(=O)c1ccc2c(c1)c(C(N)=O)nn2CC(=O)N1[C@@H]2CC[C@@H](C2)[C@H]1C(=O)Nc1cccc(Cl)n1 [Example 78, methyl 3-carbamoyl-1-(2-((1R,3S,4S)-3-((6-chloropyridin-2-yl)carbamoyl)-2-azabicyclo[2.2.1]heptan-2-yl)-2-oxoethyl)-1H-indazole-5-carboxylate] | 100 to 1000 | –
NC(=O)c1nn(CC(=O)N2[C@@H]3CC[C@@H](C3)[C@H]2C(=O)Nc2cc(C(F)(F)F)ccn2)c2ccccc12 [Example 55, 1-(2-oxo-2-((1R,3S,4S)-3-((4-(trifluoromethyl)pyridin-2-yl)carbamoyl)-2-azabicyclo[2.2.1]heptan-2-yl)ethyl)-1H-indazole-3-carboxamide] | > 10000 | –
COc1cc(Cl)nc(NC(=O)[C@@H]2[C@H]3CC[C@H](C3)N2C(=O)Cn2nc(C(N)=O)c3ccccc32)c1 [Example 97, 1-(2-((1R,3S,4S)-3-((6-chloro-4-methoxypyridin-2-yl)carbamoyl)-2-azabicyclo[2.2.1]heptan-2-yl)-2-oxoethyl)-1H-indazole-3-carboxamide] | 100 to 1000 | –
NC(=O)n1cc(CC(=O)N2[C@@H]3CC[C@@H](C3)[C@H]2C(=O)NCc2cccc(Cl)c2F)c2ccccc21 [Example 99, 3-(2-((1R,3S,4S)-3-((3-chloro-2-fluorobenzyl)carbamoyl)-2-azabicyclo[2.2.1]heptan-2-yl)-2-oxoethyl)-1H-indole-1-carboxamide] | 100 to 1000 | –
NC(=O)c1nn(CC(=O)N2CCOC[C@H]2C(=O)Nc2cccc(C(F)(F)F)n2)c2ccccc12 [Example 23, (S)-4-(2-(3-carbamoyl-1H-indazol-1-yl)acetyl)-N-(6-(trifluoromethyl)pyridin-2-yl)morpholine-3-carboxamide] | 1000 to 10000 | –
NC(=O)c1nn(CC(=O)N2[C@@H]3CC[C@@H](C3)[C@H]2C(=O)NCc2c(Br)ccc(Cl)c2F)c2ccccc12 [Example 115, 1-(2-((1R,3S,4S)-3-((6-bromo-3-chloro-2-fluorobenzyl)carbamoyl)-2-azabicyclo[2.2.1]heptan-2-yl)-2-oxoethyl)-1H-indazole-3-carboxamide] | 1000 to 10000 | –
NC(=O)c1nn(CC(=O)N2[C@@H]3CC[C@@H](C3)[C@H]2C(=O)NCc2cc(Br)cc(Cl)c2F)c2ccccc12 [Example 109, 1-(2-((1R,3S,4S)-3-((5-bromo-3-chloro-2-fluorobenzyl)carbamoyl)-2-azabicyclo[2.2.1]heptan-2-yl)-2-oxoethyl)-1H-indazole-3-carboxamide] | 100 to 1000 | –
NC(=O)c1nn(CC(=O)N2[C@@H]3CC[C@@H](C3)[C@H]2C(=O)Nc2cccc(Cl)n2)c2cnccc12 [Example 2, 1-(2-((1R,3S,4S)-3-((6-chloropyridin-2-yl)carbamoyl)-2-azabicyclo[2.2.1]heptan-2-yl)-2-oxoethyl)-1H-pyrazolo[3,4-c]pyridine-3-carboxamide] | 100 to 1000 | –
NC(=O)c1nn(CC(=O)N2[C@H]3CC[C@H](CC3)[C@@H]2C(=O)Nc2cccc(Cl)c2F)c2ccccc12 [Example 149, (1S,3R,4S)-2-(2-(3-carbamoyl-1H-indazol-1-yl)acetyl)-N-(3-chloro-2-fluorophenyl)-2-azabicyclo[2.2,2]octane-3-carboxamide] | > 10000 | –
NC(=O)c1nn(CC(=O)N2[C@@H]3CC[C@@H](C3)[C@H]2C(=O)Nc2cccc(C(F)(F)F)n2)c2cnccc12 [Example 9, 1-(2-oxo-2-((1R,3S,4S)-3-((6-(trifluoromethyl)pyridin-2-yl)carbamoyl)-2-azabicyclo[2.2.1]heptan-2-yl)ethyl)-1H-pyrazolo[3,4-c]pyridine-3-carboxamide] | 100 to 1000 | –
NC(=O)c1nn(CC(=O)N2C(C(=O)NCc3cccc(Cl)n3)[C@@H]3C[C@@H](O)[C@H]2[C@H]3O)c2ccccc12 (stereo partly drawn) [Example 154, 1-(2-((1S,4S,6R,7S)-3-(((6-chloropyridin-2-yl)methyl)carbamoyl)-6,7-dihydroxy-2-azabicyclo[2.2.1]heptan-2-yl)-2-oxoethyl)-1H-indazole-3-carboxamide] | 1000 to 10000 | –
O=C(Nc1cccc(Cl)n1)[C@@H]1[C@H]2CC[C@H](C2)N1C(=O)Cn1nc(C(=O)N2CCC2)c2ccccc21 [Example 86, (1R,3S,4S)-2-(2-(3-(azetidine-1-carbonyl)-1H-indazol-1-yl)acetyl)-N-(6-chloropyridin-2-yl)-2-azabicyclo[2.2.1]heptane-3-carboxamide] | > 10000 | –
N#Cc1cc(Cl)nc(NC(=O)[C@@H]2[C@H]3CC[C@H](C3)N2C(=O)Cn2nc(C(N)=O)c3ccccc32)c1 [Example 102, 1-(2-((1R,3S,4S)-3-((6-chloro-4-cyanopyridin-2-yl)carbamoyl)-2-azabicyclo[2.2.1]heptan-2-yl)-2-oxoethyl)-1H-indazole-3-carboxamide] | 100 to 1000 | –
CC(=O)N1CCN(C(=O)Cn2nc(C(N)=O)c3ccccc32)[C@H](C(=O)Nc2cccc(C(F)(F)F)n2)C1 [Example 30, (S)-1-(2-(4-acetyl-2-((6-(trifluoromethyl)pyridin-2-yl)carbamoyl)piperazin-1-yl)-2-oxoethyl)-1H-indazole-3-carboxamide] | – | 1000 to 10000
NC(=O)c1ccc2c(C(N)=O)nn(CC(=O)N3[C@@H]4CC[C@@H](C4)[C@H]3C(=O)Nc3cccc(Cl)n3)c2c1 [Example 124, 1-(2-((1R,3S,4S)-3-((6-chloropyridin-2-yl)carbamoyl)-2-azabicyclo[2.2.1]heptan-2-yl)-2-oxoethyl)-1H-indazole-3,6-dicarboxamide] | 100 to 1000 | –
Cc1cccc(NC(=O)[C@@H]2[C@H]3CC[C@H](C3)N2C(=O)Cn2nc(C(N)=O)c3ccncc32)n1 [Example 7, 1-(2-((1R,3S,4S)-3-((6-methylpyridin-2-yl)carbamoyl)-2-azabicyclo[2.2.1]heptan-2-yl)-2-oxoethyl)-1H-pyrazolo[3,4-c]pyridine-3-carboxamide] | 1000 to 10000 | –
